Data from ChEMBL document CHEMBL1811867, “Psilostachyin, acetylated pseudoguaianolides and their analogues: preparation and evaluation of their anti-inflammatory potential” (2011).

Assays:
[1] = Antiinflammatory activity in mouse neutrophils assessed as inhibition of LPS-stimulated TNFalpha cytokine expression at 1 ug/ml after 3 hrs by flow cytometeric analysis; assay type: functional; conditions: Neutrophil
[2] = Antiinflammatory activity in mouse neutrophils assessed as inhibition of LPS-stimulated IL1-beta expression at 1 ug/ml after 4-5 hrs by ELISA relative to control; assay type: functional; conditions: Neutrophil
[3] = Antiinflammatory activity in mouse neutrophils assessed as inhibition of LPS-stimulated IL-6 expression at 1 ug/ml after 4-5 hrs by ELISA relative to control; assay type: functional; conditions: Neutrophil
[4] = Antiinflammatory activity in mouse neutrophils assessed as inhibition of LPS-stimulated TNFalpha cytokine expression at 100 ug/ml after 3 hrs by flow cytometeric analysis; assay type: functional; conditions: Neutrophil
[5] = Antiinflammatory activity in mouse neutrophils assessed as inhibition of LPS-stimulated IL1-beta expression after 4-5 hrs by ELISA relative to control; assay type: functional, Neutrophil
[6] = Antiinflammatory activity in mouse neutrophils assessed as inhibition of LPS-stimulated IL-6 expression at 100 ug/ml after 4-5 hrs by ELISA relative to control; assay type: functional; conditions: Neutrophil

| Structure (SMILES) | inhibition at 1 µg/mL [1] | further results |
| --- | --- | --- |
| C=C1C(=O)O[C@@H]2[C@H]1CC[C@H](C)C1=C[C@H](OC(C)=O)C(=O)[C@]12C | 5.46% | – |
| C=C1C(=O)O[C@@H]2[C@H]1CC[C@H](C)C1=C[C@@H](OC(C)=O)C(=O)[C@]12C | 2.34% | – |
| C=C1C(=O)O[C@@H]2[C@H]1CC[C@H](C)[C@]1(OC(C)=O)C=CC(=O)[C@@]21C | -1.17% | – |
| C=C1C(=O)O[C@@H]2[C@H]1CC[C@H](C)[C@]1(OC(=O)CC)C=CC(=O)[C@@]21C | -17.2% | – |
| C=C1C(=O)O[C@@H]2[C@H]1CC[C@H](C)[C@]1(OC(=O)CCC)C=CC(=O)[C@@]21C | 14.1% | – |
| C=C1C(=O)O[C@@H]2[C@H]1CC[C@H](C)C1=C[C@H](OC(=O)CC)C(=O)[C@]12C | 10.5% | – |
| C=C1C(=O)O[C@@H]2[C@H]1CC[C@H](C)C1=C[C@H](OC(=O)CCC)C(=O)[C@]12C | -6.64% | – |
| C=C1C(=O)O[C@@H]2[C@H]1CC[C@H](C)C1=C[C@@H](OC(=O)CC)C(=O)[C@]12C | -9.37% | – |
| C=C1C(=O)O[C@@H]2[C@H]1CC[C@H](C)C1=C[C@@H](OC(=O)CCC)C(=O)[C@]12C | 32% | – |
| C=C1C(=O)O[C@@H]2[C@H]1CC[C@H](C)[C@]1(C=CC(=O)O1)[C@@]2(C)O | 31.2% | – |
| C[C@H]1CC[C@@H]2[C@@H](OC(=O)[C@@]23CCN=N3)[C@](C)(O)[C@@]12C=CC(=O)O2 | 49.2% | inhibition at 1 µg/mL [2]: 36%; inhibition at 1 µg/mL [3]: 11.3% |
| C=C1C(=O)O[C@@H]2[C@H]1CC[C@H](C)[C@]1(OC(C)=O)C=CC(=O)O[C@@]21C | 16.8% | – |
| C=C1C(=O)O[C@@H]2[C@H]1CC[C@H](C)[C@]1(OC(=O)CC)C=CC(=O)O[C@@]21C | 26.9% | – |
| C=C1C(=O)O[C@@H]2[C@H]1CC[C@H](C)[C@]1(OC(=O)CCC)C=CC(=O)O[C@@]21C | 12.5% | – |
| C[C@H]1CC[C@@H]2[C@@H](OC(=O)[C@@]23CCN=N3)[C@]2(C)OC(=O)C=C[C@@]12O | 59.8% | inhibition at 1 µg/mL [2]: 41.4%; inhibition at 1 µg/mL [3]: 14% |
| CC1=C2CC[C@H](C)[C@]3(O)CCC(=O)O[C@@]3(C)[C@@H]2OC1=O | 53.1% | inhibition at 1 µg/mL [2]: 40.9%; inhibition at 1 µg/mL [3]: 17.1% |
| C=C1C(=O)O[C@@H]2[C@H]1CC[C@H](C)[C@]1(O)C=CC(=O)O[C@@]21C | 41.4% | – |
| C=C1C(=O)O[C@@H]2[C@H]1CC[C@H](C)[C@]1(O)CCC(=O)[C@@]21C [CORONOPILIN] | -7.03% | – |
| C=C1C(=O)O[C@@H]2[C@H]1CC[C@H](C)[C@]1(O)C=CC(=O)[C@@]21C [PARTHENIN] | -0.39% | – |
| C=C1C(=O)O[C@@H]2[C@H]1CC[C@H](C)[C@]1(CCC(=O)O1)[C@@]2(C)O [PSILOSTACHYIN A] | 39.5% | – |
| COc1ccc(C2CNC(=O)C2)cc1OC1CCCC1 (centres undefined) [ROLIPRAM] | – | inhibition at 100 µg/mL [4]: 71.5%; inhibition (INH) [5]: 64.27%; inhibition at 100 µg/mL [6]: 36.1% |
